In US20260152691A1, “METHOD AND COMPOUNDS FOR TREATING OR PREVENTING AUTOIMMUNE DISORDERS OR IMMUNE RESPONSES MODULATED BY THE EXPRESSION OF IDO1” (The Trustees of Princeton University, priority 2019, published 2026):
Values belong to the molecule of their own block, whether it stands above or below them.

What was measured:
[1] = biological target: ferric IDO1 (Homo sapiens, UniProt P14902); experiment: Stopped-flow UV-vis spectrometry of binding to ferric IDO1
Experimental: FIG. 3 is a graph showing the second-order rate constant of 3 MI binding to ferric IDO1 determined by stopped-flow spectrometry.
FIG. 4 is a graph showing stopped-flow UV-vis spectrometry of 3 MI (30 μM) binding to IDO1 (1.4 μM) over 0.2 s.
3-Mercaptoindole (3 MI) was seen to bind to IDO1 with a fast on-rate of 1.7×10^6 M^−1 s^−1 under pseudo-first-order conditions (See FIG. 3), producing a UV-vis spectrum (see FIG. 4) that has a Soret at 424 nm, a lower peak at 321 nm, and broad q-bands at 537 nm and a shoulder at about 575 nm. […] Note that although 3 MI is referred to here, similar results can be seen with other substituted indole compounds disclosed herein.

[2] = biological target: T1, myoglobin (Homo sapiens, UniProt P02144); experiment: Heme protein selectivity by stopped-flow UV-vis spectrometry, myoglobin; assay type: biochemical; conditions: pseudo-first-order conditions
T1 sequence (P02144 1-154): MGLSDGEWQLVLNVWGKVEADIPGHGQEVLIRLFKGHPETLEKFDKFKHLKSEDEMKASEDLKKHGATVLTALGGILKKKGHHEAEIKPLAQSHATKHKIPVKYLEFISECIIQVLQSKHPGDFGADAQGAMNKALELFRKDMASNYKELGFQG
Experimental: (§1) Since hydrogen sulfide and polysulfides are known to react with other heme proteins, the selectivity of 3 MI for IDO1 was examined by mixing the substituted indole compounds (such as 3 MI) with several other heme proteins and observing their reactions using stopped-flow UV-vis spectrometry.
(§2) The substituted indole compounds had no effect on catalase even at 250 µM, whereas the substituted indole compounds did appear to reduce myoglobin and hemoglobin, producing their oxygen-bound forms. The substituted indole compound was also able to reduce ferric cytochrome c to its distinctive ferrous form. The second-order rate constants of these reactions were determined under pseudo-first-order conditions giving 6.6×10^3, 1.6×10^4, and 2.7×10^5 M^−1 s^−1 for myoglobin, hemoglobin, and cytochrome c, respectively. […] Unlike myoglobin and hemoglobin, the oxy-form of IDO1 was not observed due to the relatively slow reduction of IDO1 by 3 MI.

[3] = biological target: ferric-superoxo IDO1 (Homo sapiens, UniProt P14902); experiment: Double-mixing stopped-flow spectrometry, reaction with ferric-superoxo IDO1; assay type: biochemical; conditions: 3 MI kept reduced with 5 mM glutathione; estimated, double exponential fit
Chain of ferric-superoxo IDO1 (P14902 whole entry): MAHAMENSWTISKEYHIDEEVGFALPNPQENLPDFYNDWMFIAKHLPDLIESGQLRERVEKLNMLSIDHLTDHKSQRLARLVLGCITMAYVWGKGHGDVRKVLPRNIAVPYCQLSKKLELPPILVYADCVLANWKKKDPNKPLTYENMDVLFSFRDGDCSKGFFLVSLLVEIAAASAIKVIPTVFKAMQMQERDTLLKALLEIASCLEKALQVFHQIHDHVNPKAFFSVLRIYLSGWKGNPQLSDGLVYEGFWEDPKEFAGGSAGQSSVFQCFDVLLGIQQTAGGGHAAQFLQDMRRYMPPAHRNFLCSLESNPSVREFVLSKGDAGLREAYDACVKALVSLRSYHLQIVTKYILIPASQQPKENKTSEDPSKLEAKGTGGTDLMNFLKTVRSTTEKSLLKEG
Experimental: The nature of substituted indole compound-inhibition at high concentrations (>5 μM) was examined further with ferric-superoxo IDO1, the active tryptophan-oxidizing species. Ferric-superoxo IDO1 was generated using double-mixing stopped-flow spectrometry by mixing IDO1 prereduced with 2 mM sodium dithionite into aerobic buffer for 0.5 s. This ferric superoxo species was then mixed in the second push with 3 MI that had been maintained in the reduced state using 5 mM glutathione. 3 MI readily reacted with ferric-superoxo IDO1 to form ferric IDO1 without any observable intermediates. This was shown by a fast shift from the ferric-superoxo complex (Amax 415 nm) to the ferric (Amax 404 nm) that was completed nearly within the mixing time of the instrument (<10 ms) even at the lowest concentration of 3 MI useful for pseudo-first-order reaction conditions (where 3 MI must be at a large excess over IDO1). Following this fast conversion to ferric IDO1, there was a slower shift to the ferric 3 MI-bound complex as indicated by the Soret shifting to 424 nm (as in FIG. 4). To account for both reactions, these traces were fit using a double exponential expression.

[4] = biological target: IDO1 (Homo sapiens, UniProt P14902); experiment: IDO1 activity assay, N-formylkynurenine absorbance at 321 nm; assay type: biochemical
Chain of IDO1 (P14902 whole entry): as above
Experimental: FIG. 2 is a graph showing the activity of IDO1 (500 nM) (204) with L-tryptophan (200 μM) as substrate glutathione alone (203), and also when activated by 3 MI (500 nM) with glutathione (5 mM) (201), and by 3 MI (500 nM) without glutathione (202).
FIG. 6 reflects a system involving IDO1 (50 nM), 0.1 mM L-tryptophan, and 5 mM glutathione in 100 mM sodium phosphate, pH 7.0 with <1 μM 6-chloro-5-fluoro-1H-indole-3-thiol.
The activity of the compounds was determined as follows. UV-vis spectra were recorded using a Hewlett-Packer 8453 diode array spectrophotometer. Activity assays were done at room temperature using 100 mM sodium phosphate, pH 7.0, with 500 nM IDO1 (ε404nm=172 mM^−1 cm^−1) and 50 μM L-tryptophan. These were initiated by addition of IDO1, and activity was monitored at 321 nm where product N-formylkynurenine absorbs (ε321nm=3750 M^−1 cm^−1).
The substituted indole compound was prepared daily in a 100 mM stock solution in dimethyl sulfoxide (DMSO), and this was serially diluted to maintain a consistent final concentration of 1% (v/v) DMSO in each assay. To maintain activity, 5 mM reduced glutathione was added to some of these from a 0.5 M stock solution. The substituted indole compound was generally tested from 100 nM to 10 μM. The ability of each compound to serve as a reducing substrate for IDO1 was fit using a Michaelis-Menten equation. […] Above 5 μM 3 MI, there was a steep inhibitory effect.

[5] = biological target: ferric cytochrome c (Homo sapiens, UniProt P99999); experiment: Heme protein selectivity by stopped-flow UV-vis spectrometry, cytochrome c; assay type: biochemical; conditions: pseudo-first-order conditions
Chain of ferric cytochrome c (P99999 whole entry): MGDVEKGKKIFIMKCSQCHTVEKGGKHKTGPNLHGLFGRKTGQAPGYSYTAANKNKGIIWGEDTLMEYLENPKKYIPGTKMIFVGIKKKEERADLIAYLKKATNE
Experimental: as §1, §2

[6] = biological target: hemoglobin (Homo sapiens, UniProt P68871+P69905); experiment: Heme protein selectivity by stopped-flow UV-vis spectrometry, hemoglobin; assay type: biochemical; conditions: pseudo-first-order conditions
Chain of hemoglobin (P69905 2-142 limits assumed): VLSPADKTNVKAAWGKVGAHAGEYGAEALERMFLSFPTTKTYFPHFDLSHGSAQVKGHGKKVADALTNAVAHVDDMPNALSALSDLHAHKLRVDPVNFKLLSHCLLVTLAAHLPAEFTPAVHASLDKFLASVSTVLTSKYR
Chain of hemoglobin (P68871 2-147 limits assumed): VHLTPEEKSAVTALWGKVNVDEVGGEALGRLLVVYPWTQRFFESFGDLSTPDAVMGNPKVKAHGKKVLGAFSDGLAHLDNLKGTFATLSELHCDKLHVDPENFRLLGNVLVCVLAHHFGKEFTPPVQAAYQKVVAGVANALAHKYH
Experimental: as §1, §2

Chain of ferric IDO1 (P14902 whole entry): as the sequence (P14902 whole entry) above

- Kd of binding to IDO1 ([1]; complete conversion to bound IDO1 at micromolar concentrations of 3 MI): submicromolar
- second-order rate constant of reduction of myoglobin [2]: 6600 M⁻¹ s⁻¹
- second-order rate constant of initial reaction with ferric-superoxo IDO1 [3]: > 10^7 M^−1 s^−1
- concentration above which there was a steep inhibitory effect [4]: Above 5 μM
- Km ([4]; 500 nM IDO1, 50 μM L-tryptophan, 100 mM sodium phosphate pH 7.0, room temperature, Michaelis-Menten fit, read-out: Km of activation): 2.2 ± 0.7 µM
- IDO1 activity with reduced glutathione added ([4]; 5 mM reduced glutathione (FIG. 2, 201)): sustained 3 MI-induced IDO1 activity
- time after which the initial burst of IDO1 activity leveled off ([4]; 3 MI without glutathione (FIG. 2, 202)): 500 s
- second-order rate constant of reduction of cytochrome c [5]: 270000 M⁻¹ s⁻¹
- second-order rate constant of reduction of hemoglobin [6]: 16000 M⁻¹ s⁻¹
Compound: Sc1c[nH]c2ccccc12 [3 MI, 3-Mercaptoindole]

- on-rate (second-order rate constant) of binding to IDO1 ([1]; pseudo-first-order conditions, stopped-flow): 1.7e+06 M⁻¹ s⁻¹
Compound: Sc1c[nH]c2ccccc12 [3-Mercaptoindole (3 MI)]

- IDO1 activity, N-formylkynurenine absorbance at 321 nm over time (FIG. 6) ([4]; IDO1 50 nM, 0.1 mM L-tryptophan, 5 mM glutathione, 100 mM sodium phosphate pH 7.0, <1 μM compound, background subtracted): increase in absorbance
Compound: Fc1cc2c(S)c[nH]c2cc1Cl [6-chloro-5-fluoro-1H-indole-3-thiol]
